Legend:
[1] = target: T1, human phosphoglucomutase 1 (hPGM1) (Homo sapiens, UniProt P36871); test: ESI-MS of intact purified protein:[…] phosphorylation of active site serine after incubation; assay type: biochemical
T1 construct: gene PGM1
T1 sequence (P36871 1-562): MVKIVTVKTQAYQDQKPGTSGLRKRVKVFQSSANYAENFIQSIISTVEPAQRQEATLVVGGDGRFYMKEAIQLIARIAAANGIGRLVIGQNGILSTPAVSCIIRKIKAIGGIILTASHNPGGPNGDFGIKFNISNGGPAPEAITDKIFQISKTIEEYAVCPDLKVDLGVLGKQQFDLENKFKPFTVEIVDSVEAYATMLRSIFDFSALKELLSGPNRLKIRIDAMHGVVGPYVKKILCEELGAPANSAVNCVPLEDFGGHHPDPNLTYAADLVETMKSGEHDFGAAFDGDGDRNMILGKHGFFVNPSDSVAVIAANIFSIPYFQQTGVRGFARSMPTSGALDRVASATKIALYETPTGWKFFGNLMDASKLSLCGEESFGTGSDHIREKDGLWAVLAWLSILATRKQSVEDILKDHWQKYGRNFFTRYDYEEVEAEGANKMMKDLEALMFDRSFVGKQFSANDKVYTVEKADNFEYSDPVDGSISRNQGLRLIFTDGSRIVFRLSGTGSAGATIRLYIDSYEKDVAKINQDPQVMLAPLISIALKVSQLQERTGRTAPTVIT

[2] = target: T2, Pseudomonas aeruginosa PMM/PGM (PaPMM) (Pseudomonas aeruginosa, UniProt P26276); test: product formation in coupled G6PDH assay; ESI-MS dephosphorylation of catalytic serine ([…]); assay type: biochemical
T2 construct: gene algC
T2 sequence (P26276 2-463): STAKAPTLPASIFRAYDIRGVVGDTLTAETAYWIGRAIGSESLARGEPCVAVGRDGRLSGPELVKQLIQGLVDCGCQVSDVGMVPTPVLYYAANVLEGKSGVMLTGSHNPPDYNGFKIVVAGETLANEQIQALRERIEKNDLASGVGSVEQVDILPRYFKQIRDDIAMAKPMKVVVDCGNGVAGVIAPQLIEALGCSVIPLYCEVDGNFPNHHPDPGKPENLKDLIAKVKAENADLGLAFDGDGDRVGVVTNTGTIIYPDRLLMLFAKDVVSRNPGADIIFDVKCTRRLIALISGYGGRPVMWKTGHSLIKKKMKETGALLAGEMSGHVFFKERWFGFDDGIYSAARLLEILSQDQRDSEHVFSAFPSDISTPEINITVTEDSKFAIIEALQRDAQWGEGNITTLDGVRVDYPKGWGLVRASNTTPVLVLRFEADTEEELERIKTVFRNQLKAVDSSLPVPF

[3] = target: T2, Pseudomonas aeruginosa PMM/PGM (PaPMM); test: coupled G6PDH enzyme assay, noncompetitive inhibition fit; also ESI-MS dephosphorylation of active site serine; assay type: biochemical
[4] = target: T2, Pseudomonas aeruginosa PMM/PGM (PaPMM); test: coupled G6PDH enzyme assay, competitive inhibition fit (text prints Ki in μM; Fig. […] legend prints mM); assay type: biochemical
[5] = test system: O=P(O)(O)O[C@H]1O[C@H](CO)[C@@H](O)[C@H](O)[C@H]1O; test: purified protein

Compound: O=C(COP(=O)(O)O)[C@@H](O)[C@H](O)[C@H](O)COP(=O)(O)O [F16P, fructose 1,6-bisphosphate]
- ESI-MS of intact purified protein: 92% phosphorylation of active site serine aft [1]: Treatment of hPGM1 with F16P was done herein

Compound: O=C[C@H](O)[C@@H](O)[C@H](O)[C@H](O)COP(=O)(O)O [G6P, glucose 6-phosphate]
- product formation in coupled G6PDH assay; ESI-MS dephosphorylation of catalytic [2]: Enzymatic activity of PaPMM was quantified by measuring the formation of glucose 6-phosphate (G6P)

Compound: N[C@H]1C(OP(=O)(O)O)O[C@H](CO)[C@@H](O)[C@@H]1O (some centres unmarked) [GlcN1P, glucosamine 1-phosphate]
- Ki [3]: 307 ± 29 µM

Compound: O=P(O)(O)O[C@H]1OC[C@@H](O)[C@H](O)[C@H]1O [X1P, xylose 1-phosphate]
- Ki [4]: 8.6 ± 0.3 µM

Compound: Pseudomonas aeruginosa PMM/PGM (PaPMM) (Pseudomonas aeruginosa PAO1)
- Km [5]: 28 ± 2.8 µM

— PMC5192239 (Data in Brief, 2016)
